Measurements from US12390437B2, “Itaconic acid derivatives and uses thereof intreating an inflammatory disease or a disease associated with an undesirable immune response” (Sitryx Therapeutics Limited, priority 2019, dated 2025).

Test system: not listed separately
Test: Mouse pharmacokinetic study, oral administration
Type: in vivo
Settings: male, C57BL/6, mouse, plasma, po, 100 mg/kg, plasma, male C57BL/6 mice, oral gavage 100 mg/kg, 0.083 h; read-out: Parent compound concentrations following oral administration, Time 0.083 h
In short: (§1)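 Oral arm: 100 mg/kg gavage in 5% DMSO with 0.5% HPMC/0.1% Tween 80, blood from 5 min to 24 h. Intravenous arm: 10 mg/kg tail-vein injection in 10% DMSO with HP-β-CD, blood from 3 min to 8 h. Male C57BL/6 mice; LC-MS/MS on plasma.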

Structure (SMILES)	concentration at 0.083 h
C=C(CC(=O)OC1CC2(CCC2)C1)C(=O)OCC(=O)O [Example 96, 2-((2-methylene-4-oxo-4-(spiro[3.3]heptan-2-yloxy)butanoyl)oxy)acetic acid]	15300 ng/mL
C=C(CC(=O)OC1CCCCCCC1)C(=O)OCCC(=O)O [Example 82, 3-((4-(cyclooctyloxy)-2-methylene-4-oxobutanoyl)oxy)propanoic acid]	27500 ng/mL

Same assay, conditions: male, C57BL/6, mouse, plasma, po, 100 mg/kg, plasma, male C57BL/6 mice, oral gavage 100 mg/kg, 0.25 h; read-out: Parent compound concentrations following oral administration, Time 0.25 h

Structure (SMILES)	concentration at 0.25 h
C=C(CC(=O)OC1CC2(CCC2)C1)C(=O)OCC(=O)O [Example 96, 2-((2-methylene-4-oxo-4-(spiro[3.3]heptan-2-yloxy)butanoyl)oxy)acetic acid]	4770 ng/mL
C=C(CC(=O)OC1CCCCCCC1)C(=O)OCCC(=O)O [Example 82, 3-((4-(cyclooctyloxy)-2-methylene-4-oxobutanoyl)oxy)propanoic acid]	18000 ng/mL

Same assay, conditions: male, C57BL/6, mouse, plasma, po, 100 mg/kg, plasma, male C57BL/6 mice, oral gavage 100 mg/kg, 0.5 h; read-out: Parent compound concentrations following oral administration, Time 0.5 h

Structure (SMILES)	concentration at 0.5 h
C=C(CC(=O)OC1CC2(CCC2)C1)C(=O)OCC(=O)O [Example 96, 2-((2-methylene-4-oxo-4-(spiro[3.3]heptan-2-yloxy)butanoyl)oxy)acetic acid]	3780 ng/mL
C=C(CC(=O)OC1CCCCCCC1)C(=O)OCCC(=O)O [Example 82, 3-((4-(cyclooctyloxy)-2-methylene-4-oxobutanoyl)oxy)propanoic acid]	6450 ng/mL

Same assay, conditions: male, C57BL/6, mouse, plasma, po, 100 mg/kg, plasma, male C57BL/6 mice, oral gavage 100 mg/kg, 1 h; read-out: Parent compound concentrations following oral administration, Time 1 h

Structure (SMILES)	concentration at 1 h
C=C(CC(=O)OC1CC2(CCC2)C1)C(=O)OCC(=O)O [Example 96, 2-((2-methylene-4-oxo-4-(spiro[3.3]heptan-2-yloxy)butanoyl)oxy)acetic acid]	1550 ng/mL
C=C(CC(=O)OC1CCCCCCC1)C(=O)OCCC(=O)O [Example 82, 3-((4-(cyclooctyloxy)-2-methylene-4-oxobutanoyl)oxy)propanoic acid]	3400 ng/mL

Same assay, conditions: male, C57BL/6, mouse, plasma, po, 100 mg/kg, plasma, male C57BL/6 mice, oral gavage 100 mg/kg, 2 h; read-out: Parent compound concentrations following oral administration, Time 2 h

Structure (SMILES)	concentration at 2 h
C=C(CC(=O)OC1CC2(CCC2)C1)C(=O)OCC(=O)O [Example 96, 2-((2-methylene-4-oxo-4-(spiro[3.3]heptan-2-yloxy)butanoyl)oxy)acetic acid]	810 ng/mL
C=C(CC(=O)OC1CCCCCCC1)C(=O)OCCC(=O)O [Example 82, 3-((4-(cyclooctyloxy)-2-methylene-4-oxobutanoyl)oxy)propanoic acid]	1040 ng/mL

Same assay, conditions: male, C57BL/6, mouse, plasma, po, 100 mg/kg, plasma, male C57BL/6 mice, oral gavage 100 mg/kg, 4 h; read-out: Parent compound concentrations following oral administration, Time 4 h

Structure (SMILES)	concentration at 4 h
C=C(CC(=O)OC1CC2(CCC2)C1)C(=O)OCC(=O)O [Example 96, 2-((2-methylene-4-oxo-4-(spiro[3.3]heptan-2-yloxy)butanoyl)oxy)acetic acid]	856 ng/mL
C=C(CC(=O)OC1CCCCCCC1)C(=O)OCCC(=O)O [Example 82, 3-((4-(cyclooctyloxy)-2-methylene-4-oxobutanoyl)oxy)propanoic acid]	568 ng/mL

Same assay, conditions: male, C57BL/6, mouse, plasma, po, 100 mg/kg, plasma, male C57BL/6 mice, oral gavage 100 mg/kg, 6 h; read-out: Parent compound concentrations following oral administration, Time 6 h

Structure (SMILES)	concentration at 6 h
C=C(CC(=O)OC1CC2(CCC2)C1)C(=O)OCC(=O)O [Example 96, 2-((2-methylene-4-oxo-4-(spiro[3.3]heptan-2-yloxy)butanoyl)oxy)acetic acid]	330 ng/mL
C=C(CC(=O)OC1CCCCCCC1)C(=O)OCCC(=O)O [Example 82, 3-((4-(cyclooctyloxy)-2-methylene-4-oxobutanoyl)oxy)propanoic acid]	112 ng/mL

Same assay, conditions: male, C57BL/6, mouse, plasma, po, 100 mg/kg, plasma, male C57BL/6 mice, oral gavage 100 mg/kg, 8 h; read-out: Parent compound concentrations following oral administration, Time 8 h

Structure (SMILES)	concentration at 8 h
C=C(CC(=O)OC1CC2(CCC2)C1)C(=O)OCC(=O)O [Example 96, 2-((2-methylene-4-oxo-4-(spiro[3.3]heptan-2-yloxy)butanoyl)oxy)acetic acid]	443 ng/mL
C=C(CC(=O)OC1CCCCCCC1)C(=O)OCCC(=O)O [Example 82, 3-((4-(cyclooctyloxy)-2-methylene-4-oxobutanoyl)oxy)propanoic acid]	86 ng/mL

Same assay, conditions: male, C57BL/6, mouse, plasma, po, 100 mg/kg, plasma, male C57BL/6 mice, oral gavage 100 mg/kg, 24 h; read-out: Parent compound concentrations following oral administration, Time 24 h

Structure (SMILES)	concentration at 24 h
C=C(CC(=O)OC1CC2(CCC2)C1)C(=O)OCC(=O)O [Example 96, 2-((2-methylene-4-oxo-4-(spiro[3.3]heptan-2-yloxy)butanoyl)oxy)acetic acid]	< 0.8 ng/mL
C=C(CC(=O)OC1CCCCCCC1)C(=O)OCCC(=O)O [Example 82, 3-((4-(cyclooctyloxy)-2-methylene-4-oxobutanoyl)oxy)propanoic acid]	< 0.8 ng/mL

Test system: IL-6 cytokine output from THP-1s
Test: THP-1 AlphaLISA IL-6 cytokine assay
Type: cell-based, human
Settings: Homo sapiens; PMA-differentiated THP-1 cells, LPS 24 hr then Nigericin 1 hour
In short: (§2)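 PMA-differentiated (72 h) THP-1 cells pretreated 30 min with compound, LPS-stimulated 24 h, then nigericin 1 h at 37 °C. Supernatant IL-1β and IL-6 by AlphaLISA; % inhibition normalised to ±LPS controls, IC50 from concentration-response curves.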

Structure (SMILES)	IC50
C=C(CC(=O)OC1CC2(CCC2)C1)C(=O)OCC(=O)O [Example 96, 2-((2-methylene-4-oxo-4-(spiro[3.3]heptan-2-yloxy)butanoyl)oxy)acetic acid]	47.1 µM
C=C(CC(=O)OC1CCCCCCC1)C(=O)OCCC(=O)O [Example 82, 3-((4-(cyclooctyloxy)-2-methylene-4-oxobutanoyl)oxy)propanoic acid]	18.9 µM

Test system: not listed separately
Test: Mouse pharmacokinetic study, intravenous dosing
Type: in vivo
Settings: male, C57BL/6, mouse, iv; plasma, 10 mg/kg i.v., time 0.05 h; read-out: Parent compound concentration following intravenous administration
In short: as §1

Structure (SMILES)	concentration at 0.05 h
C=C(CC(=O)OC1CC2(CCC2)C1)C(=O)OCC(=O)O [Example 96, 2-((2-methylene-4-oxo-4-(spiro[3.3]heptan-2-yloxy)butanoyl)oxy)acetic acid]	15100 ng/mL
C=C(CC(=O)OC1CCCCCCC1)C(=O)OCCC(=O)O [Example 82, 3-((4-(cyclooctyloxy)-2-methylene-4-oxobutanoyl)oxy)propanoic acid]	17600 ng/mL

Same assay, conditions: male, C57BL/6, mouse, iv; plasma, 10 mg/kg i.v., time 0.133 h; read-out: Parent compound concentration following intravenous administration

Structure (SMILES)	concentration at 0.133 h
C=C(CC(=O)OC1CC2(CCC2)C1)C(=O)OCC(=O)O [Example 96, 2-((2-methylene-4-oxo-4-(spiro[3.3]heptan-2-yloxy)butanoyl)oxy)acetic acid]	3590 ng/mL
C=C(CC(=O)OC1CCCCCCC1)C(=O)OCCC(=O)O [Example 82, 3-((4-(cyclooctyloxy)-2-methylene-4-oxobutanoyl)oxy)propanoic acid]	8350 ng/mL

Same assay, conditions: male, C57BL/6, mouse, iv; plasma, 10 mg/kg i.v., time 0.25 h; read-out: Parent compound concentration following intravenous administration

Structure (SMILES)	concentration at 0.25 h
C=C(CC(=O)OC1CC2(CCC2)C1)C(=O)OCC(=O)O [Example 96, 2-((2-methylene-4-oxo-4-(spiro[3.3]heptan-2-yloxy)butanoyl)oxy)acetic acid]	659 ng/mL
C=C(CC(=O)OC1CCCCCCC1)C(=O)OCCC(=O)O [Example 82, 3-((4-(cyclooctyloxy)-2-methylene-4-oxobutanoyl)oxy)propanoic acid]	2780 ng/mL

Same assay, conditions: male, C57BL/6, mouse, iv; plasma, 10 mg/kg i.v., time 0.5 h; read-out: Parent compound concentration following intravenous administration

Structure (SMILES)	concentration at 0.5 h
C=C(CC(=O)OC1CC2(CCC2)C1)C(=O)OCC(=O)O [Example 96, 2-((2-methylene-4-oxo-4-(spiro[3.3]heptan-2-yloxy)butanoyl)oxy)acetic acid]	169 ng/mL
C=C(CC(=O)OC1CCCCCCC1)C(=O)OCCC(=O)O [Example 82, 3-((4-(cyclooctyloxy)-2-methylene-4-oxobutanoyl)oxy)propanoic acid]	752 ng/mL

Same assay, conditions: male, C57BL/6, mouse, iv; plasma, 10 mg/kg i.v., time 1 h; read-out: Parent compound concentration following intravenous administration

Structure (SMILES)	concentration at 1 h
C=C(CC(=O)OC1CC2(CCC2)C1)C(=O)OCC(=O)O [Example 96, 2-((2-methylene-4-oxo-4-(spiro[3.3]heptan-2-yloxy)butanoyl)oxy)acetic acid]	6.4 ng/mL
C=C(CC(=O)OC1CCCCCCC1)C(=O)OCCC(=O)O [Example 82, 3-((4-(cyclooctyloxy)-2-methylene-4-oxobutanoyl)oxy)propanoic acid]	69 ng/mL

Same assay, conditions: male, C57BL/6, mouse, iv; plasma, 10 mg/kg i.v., time 2 h; read-out: Parent compound concentration following intravenous administration

Structure (SMILES)	concentration at 2 h
C=C(CC(=O)OC1CC2(CCC2)C1)C(=O)OCC(=O)O [Example 96, 2-((2-methylene-4-oxo-4-(spiro[3.3]heptan-2-yloxy)butanoyl)oxy)acetic acid]	3 ng/mL
C=C(CC(=O)OC1CCCCCCC1)C(=O)OCCC(=O)O [Example 82, 3-((4-(cyclooctyloxy)-2-methylene-4-oxobutanoyl)oxy)propanoic acid]	2.2 ng/mL

Same assay, conditions: male, C57BL/6, mouse, iv; plasma, 10 mg/kg i.v., time 4 h; read-out: Parent compound concentration following intravenous administration

Structure (SMILES)	concentration at 4 h
C=C(CC(=O)OC1CC2(CCC2)C1)C(=O)OCC(=O)O [Example 96, 2-((2-methylene-4-oxo-4-(spiro[3.3]heptan-2-yloxy)butanoyl)oxy)acetic acid]	< 0.8 ng/mL
C=C(CC(=O)OC1CCCCCCC1)C(=O)OCCC(=O)O [Example 82, 3-((4-(cyclooctyloxy)-2-methylene-4-oxobutanoyl)oxy)propanoic acid]	1.4 ng/mL

Same assay, conditions: male, C57BL/6, mouse, iv; plasma, 10 mg/kg i.v., time 6 h; read-out: Parent compound concentration following intravenous administration

Structure (SMILES)	concentration at 6 h
C=C(CC(=O)OC1CC2(CCC2)C1)C(=O)OCC(=O)O [Example 96, 2-((2-methylene-4-oxo-4-(spiro[3.3]heptan-2-yloxy)butanoyl)oxy)acetic acid]	< 0.8 ng/mL
C=C(CC(=O)OC1CCCCCCC1)C(=O)OCCC(=O)O [Example 82, 3-((4-(cyclooctyloxy)-2-methylene-4-oxobutanoyl)oxy)propanoic acid]	1.6 ng/mL

Same assay, conditions: male, C57BL/6, mouse, iv; plasma, 10 mg/kg i.v., time 8 h; read-out: Parent compound concentration following intravenous administration

Structure (SMILES)	concentration at 8 h
C=C(CC(=O)OC1CC2(CCC2)C1)C(=O)OCC(=O)O [Example 96, 2-((2-methylene-4-oxo-4-(spiro[3.3]heptan-2-yloxy)butanoyl)oxy)acetic acid]	< 0.8 ng/mL
C=C(CC(=O)OC1CCCCCCC1)C(=O)OCCC(=O)O [Example 82, 3-((4-(cyclooctyloxy)-2-methylene-4-oxobutanoyl)oxy)propanoic acid]	< 0.8 ng/mL

Test system: IL-1β cytokine output from THP-1s
Test: THP-1 AlphaLISA IL-1β cytokine assay
Type: cell-based, human
Settings: Homo sapiens, THP-1, PMA-differentiated THP-1 cells, LPS 24 hr then Nigericin 1 hour; read-out: IL-1β (IC50)
In short: as §2

Structure (SMILES)	IC50
C=C(CC(=O)OC1CC2(CCC2)C1)C(=O)OCC(=O)O [Example 96, 2-((2-methylene-4-oxo-4-(spiro[3.3]heptan-2-yloxy)butanoyl)oxy)acetic acid]	15.7 µM
C=C(CC(=O)OC1CCCCCCC1)C(=O)OCCC(=O)O [Example 82, 3-((4-(cyclooctyloxy)-2-methylene-4-oxobutanoyl)oxy)propanoic acid]	25.7 µM
